Assays:
KB1P organoids = assay: MTT measurement of KB1P organoid survival upon increasing doses of docetaxel; format: cell-based; settings: Mus musculus, docetaxel for 72 h
Procedure: Breast cancer organoids were derived from K14-Cre; Brca1fl/fl; p53fl/fl mouse mammary tumors (KB1P (Kester, L., et al. Clin Cancer Res, 2022.)) and from MMTV-PyMT (Duarte, A. A., et al. Nat Methods, 2018. 15(2): p. 134-140) mouse mammary tumors. Both lines were cultured in 50 μl drops of Cultrex PathClear Reduced Growth Factor Basement Membrane Extract Type 2 (BME, Amsbio, 3533-005-02). KB1P organoids were cultured in Advanced Dulbecco's modified Eagle's medium (adDMEM/F12; Thermo Fisher Scientific. Cat. No. 12634-010) containing Hepes (10 mmol/L; Thermo Fisher Scientific, Cat. No. 15630-056), Penicillin/streptomycin (10,000 U/ml; Thermo Fisher Scientific, Cat. No. 15140-122), B27 (2% Thermo Fisher Scientific, Cat. No. 17504-044), N-acetylcysteine (1.25 mM; Sigma-Aldrich, Cat. No. A9165) and fibroblast growth factor (FGF, 12 ng/ml; Invitrogen, Cat. No. PHG0261). MMTV-PyMT organoids were cultured in DMEM/F12 GlutaMAX (Gibco, Cat. No 10565018) supplemented with 10 mmol/L Hepes (Gibco, Cat. No 15630106), Penicillin/streptomycin (10,000 U/ml; Thermo Fisher Scientific, Cat. No. 15140-122), B27 (2% Thermo Fisher Scientific, Cat. No. 17504-044) and fibroblast growth factor (FGF, 12 ng/ml; Invitrogen, Cat. No. PHG0261). […]
Following co-culture, medium was removed, and cultures were washed in PBS to remove T cells. […] Plates were read with a 565 nm wavelength.

tumor-reactive T cells = assay: Tumor recognition assay and viability of patient-derived tumor-reactive T cells; format: cell-based, human; settings: 10 nmol/L docetaxel
Procedure: Tumor-reactive patient T cells were generated by co-culturing PBMCs and autologous tumor organoids as described previously (Dekkers, J. F., et al. Nat Protoc, 2021. 16(4): p. 1936-1965; Cattaneo, C. M., et al. Nat Protoc, 2020. 15(1): p. 15-39). In brief, following incubation with 200 ng/ml IFNγ for 24 hr, patient tumor organoids were dissociated into single cell suspensions using TripLE Express. Tumor organoid cells were mixed with patient PBMCs ([…]) and […] were seeded in each well of a U-bottom 96-well plate pre-coated with 5 μg/ml αCD28 antibody. Co-culture medium consisted of RPMI 1640 supplemented with 2 mmol/L Ultraglutamine I, penicillin/streptomycin, 10% human AB serum, 150 U/ml rh-IL-2 and 20 μg/ml αPD1 blocking antibody (Merus, The Netherlands). Medium, IL-2 and αPD1 were refreshed every 2-3 days. PBMCs were harvested and re-stimulated every 7 days by re-plating with fresh tumor organoid cells. After two weeks of co-culture, PBMCs were harvested and used for downstream analysis or cryopreserved for later use.
Tumor-reactive PBMC were thawed in pre-warmed T cells medium and incubated for 15 minutes with 25 U/mL Benzonase. After washing, cells were re-suspended at 2−3×10^6 cells/ml in T cell medium and cultured overnight at 37° C. T cell medium consisted of RPMI 1640 supplemented with 2 mmol/L Ultraglutamine I, penicillin/streptomycin, 10% human AB serum and 150 U/ml rh-IL-2. The day after, PBMC were incubated with (or without) 10 nmol/L docetaxel for 48 h.
For evaluation of tumor reactivity, […] were re-stimulated with autologous tumor organoids or autologous healthy organoids (isolated from Geltrex for 48 h and stimulated with 200 ng/ml IFNγ for 24 h, as described in (Dekkers, J. F., et al. Nat Protoc, 2021. 16(4): p. 1936-1965; Cattaneo, C. M., et al. Nat Protoc, 2020. 15(1): p. 15-39; Voorwerk, L., et al. Nat Med, 2019. 25(6): p. 920-928) at a 2:1 effector: target ratio and seeded in αCD28 coated plates in the presence of 20 μg/ml αPD1 and co-cultured for 24 hours. At the end of the 24 h, 50 μl of the assay supernatant were taken on the side and used for the quantification of the secreted IFNγ. To this purpose, the Human IFN-γ Flex Set (BD bioscience) was used in accordance with the manufacturer's instructions. For the evaluation of CD137 expression, at the end of the 24 h, cells were washed twice in FACS buffer and stained with the following antibodies: αCD3 PerCPCy5.5, αCD4 FITC, αCD8 BV421, αCD137 APC, and near IR viability dye for 30 minutes at 4° C. in the dark. […] Cells were then washed twice with FACS buffer and recorded with a Becton Dickinson Fortessa or LSRII flow cytometer.

## CC(=O)O[C@@]12CO[C@@H]1C[C@H](O)[C@@]1(C)C(=O)[C@H](O)C3=C(C)[C@@H](OC(=O)[C@H](O)[C@@H](NC(=O)OC(C)(C)C)c4ccccc4)C[C@@](O)([C@@H](OC(=O)c4ccccc4)[C@H]21)C3(C)C [docetaxel]
KB1P organoids
  IC50: 90.5 nM
tumor-reactive T cells
  IFNγ secretion by T cells: did not enhance IFNγ secretion
  T cell viability: did not significantly alter T cell viability
  ability of T cells to recognize tumor organoids (CD137): did not increase
  expression of CD137, CD107 or PD1: did not increase
